According to the supplement of paper PMC8960247:
Counter-ions that a name gives are not always drawn. ± gives the standard error.

Experiments:
621-102 (TSC2-deficient) = test: relative viability vs DMSO; higher = less cytotoxic; conditions: serum: 10% FBS, 72 h
621-103 (TSC2-rescued) = test: as above; conditions: serum: 10% FBS, 72 h
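Note: immortalized renal angiomyolipoma cells stably carrying empty vector or TSC2, dosed in 384-well plates in DMEM, viability normalized to vehicle-treated wells within each plate.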

SMILES	relative viability (621-102 (TSC2-deficient); 0.0001 µM)	relative viability (621-102 (TSC2-deficient); 0.001 µM)	relative viability (621-102 (TSC2-deficient); 0.01 µM)	relative viability (621-102 (TSC2-deficient); 0.1 µM)	relative viability (621-102 (TSC2-deficient); 1 µM)	relative viability (621-102 (TSC2-deficient); 10 µM)	relative viability (621-103 (TSC2-rescued); 0.0001 µM)	relative viability (621-103 (TSC2-rescued); 0.001 µM)	relative viability (621-103 (TSC2-rescued); 0.01 µM)	relative viability (621-103 (TSC2-rescued); 0.1 µM)	relative viability (621-103 (TSC2-rescued); 1 µM)	relative viability (621-103 (TSC2-rescued); 10 µM)
C=CCNC1=C2C[C@@H](C)C[C@H](OC)[C@H](O)[C@@H](C)/C=C(\C)[C@H](OC(N)=O)[C@@H](OC)/C=C\C=C(/C)C(=O)NC(=CC1=O)C2=O [17-AAG (Geldanamycin)]	105 ± 1.4%	100.9 ± 0.99%	72.2 ± 2.9%	25.7 ± 0.57%	23.2 ± 0.81%	25.3 ± 0.31%	104.5 ± 0.96%	104 ± 3%	72.4 ± 3.8%	14.3 ± 0.16%	6.05 ± 0.096%	6.31 ± 0.22%
Cc1[nH]c(/C=C2\C(=O)Nc3ccc(S(=O)(=O)N(C)c4cccc(Cl)c4)cc32)c(C)c1C(=O)N1CCN(C)CC1	98.4 ± 1.2%	101 ± 2.5%	101 ± 1.8%	91.6 ± 1.4%	100 ± 2.6%	87.2 ± 1.5%	97.3 ± 1.6%	97.86 ± 0.64%	98.4 ± 2%	99.52 ± 0.97%	101.8 ± 0.38%	91.5 ± 3.8%
Cc1ccc(NC(=O)c2ccc(CN3CCN(C)CC3)cc2)cc1Nc1nc(-c2cccnc2)cs1 [Masitinib (AB1010)]	116 ± 1.7%	103 ± 4.6%	103 ± 6.5%	115.4 ± 0.45%	107 ± 2.1%	53.4 ± 14%	104.3 ± 0.28%	105 ± 1.6%	107.1 ± 0.95%	103 ± 2.9%	104 ± 1.3%	36.5 ± 2.2%
CCC(C)n1ncn(-c2ccc(N3CCN(c4ccc(OCC5COC(Cn6cncn6)(c6ccc(Cl)cc6Cl)O5)cc4)CC3)cc2)c1=O (centres undefined) [Itraconazole (Sporanox)]	108 ± 2.3%	115 ± 3.1%	102 ± 1.8%	112 ± 3.4%	60 ± 7.2%	7.53 ± 0.32%	98.8 ± 5.2%	86.8 ± 1.1%	95.59 ± 0.8%	97.5 ± 6.4%	70.71 ± 0.48%	15.44 ± 0.12%
Nc1ccc(S(N)(=O)=O)cc1 [Sulfanilamide]	94.3 ± 1.1%	108 ± 5.2%	97.7 ± 2.6%	99 ± 1.8%	99.8 ± 2.5%	92.9 ± 1.2%	102 ± 3.3%	102 ± 0.77%	104 ± 1.8%	106 ± 1.9%	101 ± 2.4%	96.1 ± 2.9%
CCN[C@H]1C[C@H](C)S(=O)(=O)c2sc(S(N)(=O)=O)cc21 [Dorzolamide HCl]	98.73 ± 0.8%	104.2 ± 0.95%	108 ± 1.7%	106.3 ± 0.82%	96.9 ± 2.5%	103 ± 3.9%	99 ± 2.7%	103 ± 3.2%	103 ± 1.3%	103 ± 1.4%	102 ± 3.7%	97.53 ± 0.19%
Cc1cc2c(s1)Nc1ccccc1N=C2N1CCN(C)CC1 [Olanzapine (Zyprexa)]	108 ± 1.3%	105 ± 3.1%	110 ± 2.6%	115 ± 5.1%	108 ± 1.7%	105 ± 4.6%	103 ± 3%	100.7 ± 0.71%	102 ± 4%	104.8 ± 1%	96.8 ± 2.5%	95.1 ± 1.2%
COC(=O)Nc1ccc(-c2nc(N3CCOCC3)c3cnn(C4CCN(Cc5cccnc5)CC4)c3n2)cc1 [WYE-687]	97.311 ± 0.046%	102 ± 3%	99.7 ± 1.4%	100 ± 2.7%	59.1 ± 2.8%	16.2 ± 0.8%	113 ± 3.9%	115.4 ± 1.1%	113 ± 1.5%	104 ± 2.3%	55.5 ± 0.9%	23.1 ± 0.089%
NC1(c2ccc(-c3nc4ccn5c(=O)[nH]nc5c4cc3-c3ccccc3)cc2)CCC1 [MK-2206]	102.1 ± 0.84%	102 ± 4.5%	101 ± 2.4%	98.62 ± 0.66%	95.7 ± 1.4%	59 ± 3.6%	79.7 ± 4.3%	81.98 ± 0.32%	79.4 ± 1.1%	77.6 ± 1.3%	74 ± 2.4%	25.2 ± 3.4%
CC(C)C[C@@H](C=O)NC(=O)[C@H](CC(C)C)NC(=O)[C@H](CC(C)C)NC(=O)OCc1ccccc1 [MG-132]	104 ± 2.3%	102 ± 4%	99.9 ± 1.6%	94.63 ± 0.69%	4.41 ± 0.73%	1.52 ± 0.059%	99.8 ± 3.3%	93.4 ± 2.7%	95.3 ± 4.2%	53.7 ± 8.3%	2 ± 0.3%	1.393 ± 0.0089%
Oc1nc(-c2ccc(C(F)(F)F)cc2)nc2c1CSCC2 [XAV-939]	116 ± 0.67%	112 ± 2.7%	116 ± 5.5%	120 ± 1.9%	119.9 ± 0.91%	102.42 ± 0.045%	99.56 ± 0.24%	104 ± 2.7%	102 ± 2.3%	102 ± 2%	102 ± 1.7%	102 ± 1.7%
COc1cccc2c1C(=O)c1c(O)c3c(c(O)c1C2=O)C[C@@](O)(C(=O)CO)C[C@@H]3O[C@H]1C[C@H](N)[C@H](O)[C@H](C)O1 [Adriamycin]	102 ± 2%	93.5 ± 5.5%	71.1 ± 1.7%	65.1 ± 2.7%	17.4 ± 2.1%	5.59 ± 0.56%	102.4 ± 0.79%	103 ± 1.9%	87.9 ± 3.1%	60.3 ± 1.4%	13.01 ± 0.075%	12 ± 0.24%
Cc1ccc(-n2nc(C(C)(C)C)cc2NC(=O)Nc2ccc(OCCN3CCOCC3)c3ccccc23)cc1 [BIRB 796]	104 ± 3.1%	107 ± 3.4%	98.8 ± 4.4%	103.8 ± 0.27%	103 ± 4.7%	104 ± 1.4%	98 ± 1.9%	98.8 ± 1.3%	97.2 ± 1%	98.7 ± 1.7%	94.18 ± 0.14%	95.5 ± 1.8%
O=C(CN1C(=O)C2(CCCC2)NC[C@H]1c1cc(F)cc(F)c1)Nc1ccc2c(c1)C[C@@]1(C2)C(=O)Nc2ncccc21 [MK 3207 hydrochloride]	114 ± 1.5%	114 ± 1.4%	114.8 ± 0.14%	113 ± 3.3%	116.5 ± 0.26%	104 ± 2.5%	103 ± 1.3%	103 ± 1.4%	101.4 ± 0.9%	101.2 ± 0.77%	102 ± 2%	102 ± 1.4%
O=C(c1ccc(/C=C/c2n[nH]c3ccccc23)cc1)N1CCNCC1 [KW 2449]	103 ± 1.6%	92.5 ± 3.8%	93.7 ± 0.96%	94.1 ± 1.3%	95.02 ± 0.93%	37.58 ± 0.36%	102.2 ± 0.34%	101.3 ± 0.97%	101.8 ± 0.59%	102 ± 1.6%	96.784 ± 0.018%	15.1 ± 0.84%
C=CC(=O)Nc1cccc(Oc2nc(Nc3ccc(N4CCN(C)CC4)cc3OC)ncc2Cl)c1 [WZ4002]	110 ± 1.7%	100 ± 6.1%	104 ± 4.2%	101 ± 3.6%	99 ± 2%	51.6 ± 2%	100.2 ± 0.22%	101 ± 1.6%	100.1 ± 0.83%	101.6 ± 0.99%	101 ± 2.2%	32.5 ± 1.5%
Oc1ncnc2[nH]ncc12 [Allopurinol]	96.2 ± 0.32%	105 ± 2.6%	102 ± 1.7%	91.9 ± 0.92%	99.48 ± 0.58%	101.9 ± 0.86%	103 ± 3.1%	98.4 ± 1.6%	101 ± 3.5%	98.7 ± 3.6%	98.2 ± 1.6%	100 ± 1.9%
CC[C@H](c1ccc(O)cc1)[C@@H](CC)c1ccc(O)cc1 [Hexestrol (Bibenzyl)]	105 ± 2.8%	121 ± 3.7%	108 ± 5.3%	100 ± 6.5%	113 ± 2.7%	99.9 ± 5.4%	89.4 ± 5.1%	89.3 ± 4%	90.4 ± 1%	90 ± 2.3%	95 ± 2.3%	95.35 ± 0.45%
O=C(c1cc(Cc2n[nH]c(=O)c3ccccc23)ccc1F)N1CCN(C(=O)C2CC2)CC1 [AZD2281 (Olaparib)]	120 ± 2.1%	129 ± 5.5%	125 ± 5.6%	120 ± 2.8%	114.2 ± 0.69%	81.75 ± 0.48%	104 ± 1.5%	103 ± 1.7%	104.6 ± 0.91%	99.6 ± 3.1%	104 ± 1.5%	98.4 ± 4.5%
CCNC(=O)c1cc2c(-c3cc(OCCN4CCCC4)c(Cl)cc3Cl)nc(N)nc2s1 [NVP-BEP800]	97.39 ± 0.18%	102 ± 6.3%	107 ± 5.5%	102 ± 1.2%	56.1 ± 4%	19.3 ± 1.1%	101 ± 2.1%	99.72 ± 0.67%	99.48 ± 0.53%	107 ± 2%	43.99 ± 0.26%	4.6 ± 0.3%
COC(=O)c1ccc2c(C(=Nc3ccc(N(C)C(=O)CN4CCN(C)CC4)cc3)c3ccccc3)c(O)[nH]c2c1 [BIBF1120 (Vargatef)]	101 ± 2.6%	111 ± 5.3%	112 ± 1.5%	108 ± 3.1%	105 ± 1.7%	95.8 ± 1.2%	86 ± 5.4%	97.2 ± 3.1%	103.3 ± 0.75%	98.9 ± 3.9%	96.9 ± 2.5%	82 ± 2.1%
C[C@@H](Oc1cc(-c2cnn(C3CCNCC3)c2)cnc1N)c1c(Cl)ccc(F)c1Cl	105.6 ± 0.81%	97.3 ± 6.2%	104 ± 2.6%	106 ± 1.4%	98 ± 2.9%	10.7 ± 1.4%	99.34 ± 0.12%	102.8 ± 0.57%	102 ± 1.5%	103 ± 1.6%	101.6 ± 0.21%	5.36 ± 0.69%
CC(C)(C#N)c1cc(Cn2cncn2)cc(C(C)(C)C#N)c1 [Anastrozole (Arimidex)]	125 ± 1.8%	109 ± 6.2%	108 ± 3.5%	106 ± 2.2%	120 ± 1.5%	119 ± 4.3%	101 ± 1.4%	104 ± 3.2%	101 ± 1.7%	103.6 ± 0.71%	99.407 ± 0.097%	99.4 ± 2.6%
Cc1cc(NS(=O)(=O)c2ccc(N)cc2)no1 [Sulfamethoxazole]	105 ± 5.2%	104 ± 3.8%	104.66 ± 0.095%	97.02 ± 0.95%	101.8 ± 0.93%	97.2 ± 2%	96.09 ± 0.3%	102 ± 2.2%	101 ± 3.9%	101 ± 4.7%	99.4 ± 6%	101 ± 1.7%
O=C(NOCC1CC1)c1ccc(F)c(F)c1Nc1ccc(I)cc1Cl	101 ± 2.5%	98 ± 1.2%	104 ± 1.8%	97.3 ± 1.5%	98.4 ± 1.5%	81.4 ± 0.87%	97.56 ± 0.82%	92.3 ± 5.6%	98.9 ± 2.7%	99.9 ± 2.7%	96.7 ± 3.3%	74.9 ± 1.4%
CC(C)[C@H](C(=O)Nc1ccc(C(=O)NO)cc1)c1ccccc1 [AR-42 (HDAC-42)]	94.68 ± 0.44%	109 ± 2.2%	90.8 ± 3.5%	82.4 ± 0.9%	61.7 ± 2.2%	41 ± 1.6%	109 ± 2%	98.16 ± 0.28%	102 ± 6.3%	83.4 ± 3.6%	41.07 ± 0.079%	3.41 ± 0.081%
c1ccc2c(CCNc3ccc(Nc4ccncc4)cc3)c[nH]c2c1	131 ± 2%	122 ± 2.9%	119.8 ± 0.41%	114 ± 1.4%	110 ± 6.2%	68.7 ± 4.9%	113.5 ± 1%	103 ± 1.1%	103 ± 1.1%	106 ± 1.8%	105 ± 2%	64.7 ± 3.8%
